Structures are written as SMILES.

In a melting point compilation (Tetko et al.; mined from patent text by program, amines drawn as free bases though some values may be those of a salt) one finds melting point data, which are given here for 61 compounds.

The term melting point denotes the temperature, or range, at which the solid turns liquid. `Oc1ccc(-c2ncc3ncc(-c4ccccc4O)cc3n2)cc1` showed a melting point of 278 to 279 °C.
`CCOC(=O)COc1ccc(SCc2ccc3nc(-c4ccc(C(F)(F)F)cc4)sc3c2)cc1C` registered a melting point of 176 to 177 °C.
In turn, `CCOC(=O)C(=NO)c1cnsn1` gave a melting point of 60 to 66 °C.
With `CC(C)[C@H](NC(=O)CC[C@H](C)CNC(=O)COc1ccccc1)[C@@H](O)c1c(-c2ccccc2)c1=O` the figure was 74 to 84 °C.
With `O=C(NC(=O)C(c1ccccc1)c1ccccc1)OC1CCCC1`, the melting point lay within 120 to 123 °C.
With `O=C(CN1CCC(Cc2ccccc2)CC1)Nc1ccc2c(c1)CC(=O)N2`, the melting point was 166 to 170 °C.
Compound `O=C(O)C#Cc1ccc(-c2ccccc2)cc1` returned a melting point of 170 °C.
With `COc1ccc(Cn2nnnc2C(=O)Nc2cc(Cl)cc(NC(=O)c3nnnn3Cc3ccc(OC)cc3)n2)cc1` the figure was 201 to 203 °C.
The compound `CC(=O)OC1CSC(OC(=N)C(Cl)(Cl)Cl)C(OC(C)=O)C1OC(C)=O` (stereo unspecified) showed a melting point of 110 °C.
Consider `O=C(O)Cc1cc(Br)ccc1OCc1ccccc1`, for which the melting point was 87 to 88.5 °C.
In turn, `CCn1c(=O)ccc2cnc(Nc3ccc(N(C)C)cc3)nc21` showed a melting point of 189 to 191 °C.
Consider `CCOC(=O)c1ccc(OCCCCCCCCCCC2c3c(c4ccccc4c4ccccc34)-c3c2c2ccccc2c2ccccc32)cc1`, for which the melting point lay in the range of 122 to 124 °C.
Compound `O=C1c2ccccc2C(=O)C1c1ccncn1` yielded a melting point of 168 to 169 °C.
Consider `CNC(=O)Nc1nnc(C(F)F)s1`, for which the melting point fell in the range of 198 to 200 °C.
In the case of `CCOC(=O)NNC(=O)Nc1ccc(C(F)(F)F)cc1`, the melting point lay within 205 to 208 °C.
Compound `CC(C(=O)O)n1ccc2c(OCc3ccccc3)cccc21` (stereo unspecified) registered a melting point of 143 to 146 °C.
As to `FC(F)(F)c1cc(Cc2ccc(Cl)c(C(F)(F)F)c2)ccc1Cl`, the melting point lay within 98 to 101 °C.
As for `CSc1ccc(C(=O)NC[C@H]2O[C@@H]2c2ccccc2)cc1` (racemic), the melting point turned out to be 110 °C.
In the case of `COC(=O)c1cc(NC(=O)Nc2ccccc2)ccn1`, the melting point fell in the range of 206 to 208 °C.
With `Cc1cc(N(C)CC(=O)N2CCN(Cc3ccc4c(c3)OCO4)CC2)ccc1Oc1ccc(NC(=O)c2ccc(C(F)(F)F)cc2)cn1` the figure was 128 to 131 °C; with `O=C1c2c(Cl)cccc2-n2cnc(-c3nc(C4CCCC4)no3)c2[C@@H]2CCCN12`, 177 to 178 °C; with `Cc1nc(-c2ccc(N3CC(CN4CCN(C(CC(=O)OCc5ccccc5)C(=O)OCc5ccccc5)CC4)OC3=O)cc2)no1` (stereo unspecified), 119 °C.
Consider `CC(=O)OC1CC(C)(C)N(OC(=NC2CCCCC2)N(C(C)=O)C2CCCCC2)C(C)(C)C1`, for which the melting point fell in the range of 125 to 130 °C.
As for `CC(C)(O)c1ccc(C2CCNCC2)c(F)c1`, the melting point came out at 151 °C.
`N#Cc1ccc(-c2cn(-c3ccc(C#N)cc3)c(SCc3cccnc3)n2)cc1` yielded a melting point of 218 to 225 °C.
`COc1ccc(-c2cc(C#N)c3cc(O)ccc3c2)cc1F` gave a melting point of 214 to 216 °C.
With `CC(C)(C)OC(=O)[C@@H]1CS[C@H](c2ccccc2F)N1C(=O)CNC(=O)Nc1cccc(CC(=O)O)c1` the figure was 110 °C.
Consider `CCC(C(N)=O)N(Cc1ccc2nc(NCCCN3CCOCC3)n(Cc3nc(C)ccc3OC)c2c1)c1cc(C)cc(C)c1` (stereo unspecified), for which the melting point was determined as 130 °C.
The compound `CCn1c(=O)sc2cc(C(O)c3ccc([N+](=O)[O-])cc3)ccc21` (stereo unspecified) displayed a melting point of 160 to 162 °C.
Take `COc1cc2c(cc1OC)CN(CCC1OCC(C)(C)c3cc(OC)c(OC)cc31)CC2` (stereo unspecified): the melting point was 100 to 105 °C.
Regarding `CC(C)(Cc1ccc(O)c2ncccc12)[N+](=O)[O-]`, the melting point lay within 133 to 134 °C.
With `CCC(=O)Nc1c(-c2c(F)cc(F)cc2F)c(Cl)nc2ncnn12` the figure was 162 to 165 °C; with `Cc1oc(-c2ccccc2)nc1CCOc1ccc(CCCCCC2OC(=O)NC2=O)cc1` (stereo unspecified), 157 to 158 °C; with `Nc1nc(N)c2c(CCc3ccc(C(=O)N[C@@H](CCC(=O)O)C(=O)O)cc3)cnc-2[nH]1`, 258 to 262 °C.
The compound `COc1c(N2CCC(=NO)CC2)c(F)cc2c(=O)c(C(=O)O)cn(C3CC3)c12` came in with a melting point of 258 to 261 °C.
The compound `O=C(O)CCCCN1CCN(C2=Nc3ccccc3Oc3ccc(Cl)cc32)CC1` had a melting point of 223 to 226 °C.
Regarding `O=C(O)c1cc(=O)c2oc3ccc(Cl)cc3c(=O)c2n1Cc1ccccc1`, the melting point is 269 to 271 °C.
Regarding `Fc1cc(-c2cc(C(F)(F)F)n3ncc(-c4ccncc4)c3n2)ccc1C(F)(F)F`, the melting point was found to be 262 °C.
`Cc1nc(-n2cnn(Cc3ccc(F)cc3)c2=O)sc1C(N)=O` registered a melting point of 232 to 233 °C.
Turning to `Cc1cccc([N+](=O)[O-])c1C=NO`, the melting point fell in the range of 190 to 192 °C.
With `Brc1cc2c(c(C34CC5CC(CC(C5)C3)C4)c1)OCO2` the figure was 136 °C; with `Cc1ccncc1Cn1nnnc1-c1ccc(Cl)c(Cl)c1`, 167 to 169 °C.
`COc1ccc(S(=O)(=O)C2(CCCCC#Cc3ccc(Cl)cc3)SC(=O)NC2=O)cc1` (stereo unspecified): the melting point lay within 145 to 148 °C.
With `Cc1c(C)c2c(c(C)c1NC(=O)C(=O)C(C)(C)C)C(c1ccc(C(C)C)cc1)CO2` (stereo unspecified) the figure was 142 to 143 °C.
For `CCOC(=O)C(=O)CC(=O)c1cn(Cc2ccccc2F)c2ccccc2c1=O`, the melting point was in the range of 152 to 153 °C.
For `NC[C@@H]1CNc2cccc(-c3ccccc3C(F)(F)F)c2O1`, the melting point turned out to be 180 °C.
With `Cc1c(C#N)c(C(F)(F)F)nn1-c1c(Cl)cc(C(F)(F)F)cc1Cl` the figure was 90 to 92 °C; with `c1ccc2cc3[nH]c(SCc4ncc[nH]4)nc3cc2c1`, 172 °C.
The compound `CCOCC(C)(C)COc1ccc(-c2ccc3c(c2)C=C(C(=O)Nc2ccc(CN(C)C4CCOCC4)cc2)CCS3(=O)=O)cc1` had a melting point of 209 to 210 °C.
With `O=C(NC1CCN(CCCCc2ccccc2)C1)C12CC3CC(CC(C3)C1)C2` (stereo unspecified), the melting point is 82 to 84 °C.
`Oc1nc2ccnn2c2ncccc12` came in with a melting point above 300 °C.
With `CC(=O)Nc1scc(C)c1C(=O)c1ccccc1Cl` the figure was 148 to 149 °C; with `CC(=O)N[C@@H]1c2cc(C)ccc2OC(C)(C)[C@H]1O` (relative stereo), 188 to 190 °C.
In turn, `O=c1c2c(nc3ccc(-c4nnn[nH]4)cn13)CSC2` showed a melting point of 285 °C.
`COc1ccc(SC2CC(=O)N2)cc1OC` (stereo unspecified) registered a melting point of 145 to 146 °C.
Turning to `CC(=O)OCCOCc1nc2nccnc2c(=O)[nH]1`, the melting point lay in the range of 157 to 159 °C.
Consider `CN(C)CCCCC(=O)c1ccc2c(c1)Cc1cc(C(=O)CCCCN(C)C)ccc1-2`, for which the melting point was 124 to 126 °C.
With `N#Cc1cnc2c(c1Nc1ccc(Cl)cc1Br)C=C1N=CN=C1C2` the figure was 244 to 246 °C; with `Cc1ccc(S(=O)(=O)OCCc2nc(-c3cccc(Br)c3)oc2C)cc1`, 107 to 109 °C.
`COC(=O)c1ccc(COc2cc(F)cc(C3(OC)CCOCC3)c2)cc1` gave a melting point of 88 to 89 °C.
For `O=C(Oc1ccccc1)N1CCC(c2noc3cccc(F)c23)CC1`, the melting point lay within 108 to 110 °C.
